Values quoted from earlier work as cited in patent US10907142B2, “Oligosaccharides comprising an aminooxy group and conjugates thereof” (Genzyme Corporation, priority 2007, dated 2021).

System: skeletal and cardiac muscle glycogen
Conditions: murine model of Pompe disease; compared with recombinant human GAA; conjugate prepared by the method of U.S. Pat. No. 7,001,994

In the case of “conjugate of the lysosomal enzyme acid α-glucosidase (GAA) with a a bis-M6P oligosaccharide: GAA coupled with a bis-M6P oligosaccharide by the method of U.S. Pat. No. 7,001,994”, the “reducing skeletal and cardiac muscle glycogen” value is listed as “more effective in reducing skeletal and cardiac muscle glycogen than recombinant human GAA”.
